Data published in US10329294B2, “Pyrazolopyrimidine inhibitors of IRAK4 activity” (MERCK SHARP & DOHME CORP., priority 2015, dated 2019).
Counter-ions that a name gives are not always drawn.

Each compound was assayed against IRAK4 (Homo sapiens (Human), UniProt Q9NWZ3) (assay: IRAK4 Kinase Assay). Conditions: IMAP fluorescence polarization, 0.5 nM GST tagged IRAK4, 100 μM ATP, 30 minutes at 25° C.; read-out: IRAK4 IC50.
Format: biochemical

IRAK4, sequence (Q9NWZ3 whole entry): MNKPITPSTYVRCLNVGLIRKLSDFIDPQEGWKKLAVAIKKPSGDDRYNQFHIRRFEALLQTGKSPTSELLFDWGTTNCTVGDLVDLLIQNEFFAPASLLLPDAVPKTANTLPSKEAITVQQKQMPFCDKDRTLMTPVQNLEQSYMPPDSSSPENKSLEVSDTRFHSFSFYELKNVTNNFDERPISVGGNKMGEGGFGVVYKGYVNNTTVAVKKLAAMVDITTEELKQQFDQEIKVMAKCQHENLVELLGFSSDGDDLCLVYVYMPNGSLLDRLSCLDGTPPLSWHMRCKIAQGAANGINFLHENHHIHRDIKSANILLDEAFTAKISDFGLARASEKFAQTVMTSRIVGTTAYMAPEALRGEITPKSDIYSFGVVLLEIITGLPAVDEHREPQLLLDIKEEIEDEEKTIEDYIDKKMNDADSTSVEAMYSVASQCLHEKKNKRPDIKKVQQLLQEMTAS

IC50 [nM]	Structure (SMILES)
6	Cn1cc(NC(=O)c2cnn3ccc(NC4CCCCNC4)nc23)c(C(F)(F)F)n1 (centres unmarked) [Example 12, 5-(azepan-3-ylamino)-N-[1-methyl-3-(trifluoromethyl)-1H-pyrazol-4-yl]pyrazolo[1,5-a]pyrimidine-3-carboxamide hydrochloride]
29	O=C(Nc1cn(CC(F)F)nc1C(F)(F)F)c1cnn2ccc(N3CCNCC3)nc12 [Example 62, N-[1-(2,2-difluoroethyl)-3-(trifluoromethyl)-1H-pyrazol-4-yl]-5-piperazin-1-ylpyrazolo[1,5-a]pyrimidine-3-carboxamide trifluoroacetate]
48	O=C(Nc1cscc1C(F)F)c1cnn2ccc(N3CC4CCC3CN4)nc12 (centres unmarked) [Example 135, 5-(2,5-diazabicyclo[2.2.2]oct-2-yl)-N-[4-(difluoromethyl)thiopen-3-yl]pyrazolo[1,5-a]pyrimidine-3-carboxamide trifluoroacetate]
1	CC(C)(C)n1cc(NC(=O)c2cnn3ccc(N[C@@H]4CCCC[C@@H]4N)nc23)c(C(F)(F)F)n1 [Example 294, 5-{[(1R,2S)-2-aminocyclohexyl]amino}-N-[1-tert-butyl-3-(trifluoromethyl)-1H-pyrazol-4-yl]pyrazolo[1,5-a]pyrimidine-3-carboxamide trifluoroacetate]
876	Cn1cc(NC(=O)c2cnn3ccc(N[C@@H]4CNC[C@H](F)C4)nc23)c(C(F)(F)F)n1 [Example 254, 5-(((3S,5R)-5-Fluoropiperidin-3-yl)amino)-N-(1-methyl-3-(trifluoromethyl)-1H-pyrazol-4-yl)pyrazolo[1,5-a]pyrimidine-3-carboxamide]
0.5	Cn1cc(NC(=O)c2cnn3ccc(N[C@@H]4CCCNC4)nc23)c(C(F)F)n1 [Example 91, N-[3-(difluoromethyl)-1-methyl-1H-pyrazol-4-yl]-5-[(3R)-piperidin-3-ylamino]pyrazolo[1,5-a]pyrimidine-3-carboxamide trifluoroacetate]
24	CN[C@H]1CCCC[C@H]1Nc1ccn2ncc(C(=O)Nc3cn(C)nc3C(F)(F)F)c2n1 [Example 262, N-(1-Methyl-3-(trifluoromethyl)-1H-pyrazol-4-yl)-5-(((1R,2S)-2-(methylamino)cyclohexyl)amino)pyrazolo[1,5-a]pyrimidine-3-carboxamide]
49	CC(C)(C)n1cc(NC(=O)c2cnn3ccc(N4CCNCC5(CC5)C4)nc23)c(C(F)(F)F)n1 [Example 47, N-[1-tert-butyl-3-(trifluoromethyl)-1H-pyrazol-4-yl]-5-(5,8-diazaspiro[2.6]non-5-yl)pyrazolo[1,5-a]pyrimidine-3-carboxamide trifluoroacetate]
72	Cn1cc(NC(=O)c2cnn3ccc(N4CCCNCC4)nc23)c(Br)n1 [Example 137, N-(3-bromo-1-methyl-1H-pyrazol-4-yl)-5-(1,4-diazepan-1-yl)pyrazolo[1,5-a]pyrimidine-3-carboxamide trifluoroacetate]
3	Cn1cc(NC(=O)c2cnn3ccc(N[C@@H]4CCCC[C@@H]4N)nc23)c(CCF)n1 [Example 289, 5-{[(1R,2S)-2-aminocyclohexyl]amino}-N-[3-(2-fluoroethyl)-1-methyl-1H-pyrazol-4-yl]pyrazolo[1,5-a]pyrimidine-3-carboxamide trifluoroacetate]
2	Cn1cc(NC(=O)c2cnn3ccc(N4CCC(F)(F)[C@H](N)C4)nc23)c(C(F)F)n1 (single isomer, unassigned) [Example 193, 5-[(4R)- or (4S)-(3-amino-4,4-difluoropiperidin-1-yl)-N-[3-(difluoromethyl)-1-methyl-1H-pyrazol-4-yl]pyrazolo[1,5-a]pyrimidine-3-carboxamide trifluoroacetate]
49	Cn1cc(NC(=O)c2cnn3ccc(N4CCNC(C(F)F)C4)nc23)c(C(F)(F)F)n1 (centres unmarked) [Example 16, 5-[3-(difluoromethyl)piperazin-1-yl]-N-[1-methyl-3-(trifluoromethyl)-1H-pyrazol-4-yl]pyrazolo[1,5-a]pyrimidine-3-carboxamide formate]
45	Cn1cc(NC(=O)c2cnn3ccc(N4CCN5CCC4C5)nc23)c(C(F)(F)F)n1 (centres unmarked) [Example 43, 5-(1,4-diazabicyclo[3.2.1]oct-4-yl)-N-[1-methyl-3-(trifluoromethyl)-1H-pyrazol-4-yl]pyrazolo[1,5-a]pyrimidine-3-carboxamide trifluoroacetate]
0.7	Cn1cc(NC(=O)c2cnn3ccc(N4C[C@H](N)C[C@H](F)C4)nc23)c(C(F)F)n1 [Example 251, 5-[(3R,5S)-3-amino-5-fluoropiperidin-1-yl]-N-[3-(difluoromethyl)-1-methyl-1H-pyrazol-4-yl]pyrazolo[1,5-a]pyrimidine-3-carboxamide trifluoroacetate]
8	N[C@H]1CCCC[C@H]1Nc1ccn2ncc(C(=O)Nc3ccoc3C(F)(F)F)c2n1 [Example 45, 5-{[(1R,2S)-2-aminocyclohexyl]amino}-N-[2-(trifluoromethyl)furan-3-yl]pyrazolo[1,5-a]pyrimidine-3-carboxamide trifluoroacetate]
1	N#Cc1ccccc1NC(=O)c1cnn2ccc(N[C@@H]3CCCC[C@@H]3N)nc12 [Example 265, 5-(((1R,2S)-2-Aminocyclohexyl)amino)-N-(2-cyanophenyl)pyrazolo[1,5-a]pyrimidine-3-carboxamide]

The remaining lines, values behind:

Structure (SMILES)	IC50 [nM]
Cn1cc(NC(=O)c2cnn3ccc(N4C[C@@H]5CNC[C@H]4C5)nc23)c(C(F)F)n1 (single isomer, unassigned) [Example 239, 5-[(1S,5R)- or (1R,5S)-3,6-diazabicyclo[3.2.1]oct-6-yl]-N-[3-(difluoromethyl)-1-methyl-1H-pyrazol-4-yl]pyrazolo[1,5-a]pyrimidine-3-carboxamide]	3
O=C(Nc1ccsc1Br)c1cnn2ccc(N3CCCNCC3)nc12 [Example 127, N-(2-bromothiophen-3-yl)-5-(1,4-diazepan-1-yl)pyrazolo[1,5-a]pyrimidine-3-carboxamide trifluoroacetate]	419
Cn1cc(NC(=O)c2cnn3ccc(N4C[C@@H]5CN[C@@H](C5)C4)nc23)c(C(F)(F)F)n1 (single isomer, unassigned) [Example 224, 5-[(1S,5S)- or (1R,5R)-3,6-diazabicyclo[3.2.1]oct-3-yl]-N-[1-methyl-3-(trifluoromethyl)-1H-pyrazol-4-yl]pyrazolo[1,5-a]pyrimidine-3-carboxamide]	70
Cn1cc(NC(=O)c2cnn3ccc(N[C@@H]4CCC(F)(F)C[C@@H]4N)nc23)c(C(F)F)n1 (single isomer, unassigned) [Example 211, 5-{[(1S,2R)- or (1R,2S)-2-amino-4,4-difluorocyclohexyl]amino}-N-[3-(difluoromethyl)-1-methyl-1H-pyrazol-4-yl]pyrazolo[1,5-a]pyrimidine-3-carboxamide]	27
Cn1cc(NC(=O)c2cnn3ccc(N4CC5CCC(C4)N5)nc23)c(C(F)(F)F)n1 [Example 81, 5-(3,8-diazabicyclo[3.2.1]oct-3-yl)-N-[1-methyl-3-(trifluoromethyl)-1H-pyrazol-4-yl]pyrazolo[1,5-a]pyrimidine-3-carboxamide trifluoroacetate]	9
Cn1cc(NC(=O)c2cnn3ccc(N4[C@H]5CCNC[C@@H]4CC5)nc23)c(C(F)(F)F)n1 (single isomer, unassigned) [Example 222, 5-[(1R,6S)- or (1S,6R)-3,9-diazabicyclo[4.2.1]non-9-yl]-N-[1-methyl-3-(trifluoromethyl)-1H-pyrazol-4-yl]pyrazolo[1,5-a]pyrimidine-3-carboxamide trifluoroacetate]	168
Cn1cc(NC(=O)c2cnn3ccc(N[C@H]4CCCCNC4)nc23)c(C(F)F)n1 (single isomer, unassigned) [Example 163, 5-[(3S)- or (3R)-azepan-3-ylamino]-N-[3-(difluoromethyl)-1-methyl-1H-pyrazol-4-yl]pyrazolo[1,5-a]pyrimidine-3-carboxamide trifluoroacetate]	7
O=C(Nc1ccsc1Cl)c1cnn2ccc(N3CC4CCC3CN4)nc12 (centres unmarked) [Example 134, N-(2-chlorothiophen-3-yl)-5-(2,5-diazabicyclo[2.2.2]oct-2-yl)pyrazolo[1,5-a]pyrimidine-3-carboxamide trifluoroacetate]	306
Cn1cc(NC(=O)c2cnn3ccc(N4CC5CC(C4)N5)nc23)c(C(F)(F)F)n1 [Example 19, 5-(3,6-diazabicyclo[3.1.1]hept-3-yl)-N-[1-methyl-3-(trifluoromethyl)-1H-pyrazol-4-yl]pyrazolo[1,5-a]pyrimidine-3-carboxamide trifluoroacetate]	389
N#Cc1sccc1NC(=O)c1cnn2ccc(N[C@@H]3CCCC(F)(F)[C@@H]3N)nc12 [Example 133, 5-{[(1R,2R)-2-amino-3,3-difluorocyclohexyl]amino}-N-(2-cyanothiophen-3-yl)pyrazolo[1,5-a]pyrimidine-3-carboxamide trifluoroacetate]	95
Cn1cc(NC(=O)c2cnn3ccc(N4CC5CNCC4C5)nc23)c(C(F)(F)F)n1 (centres unmarked) [Example 82, 5-(3,6-diazabicyclo[3.2.1]oct-6-yl)-N-[1-methyl-3-(trifluoromethyl)-1H-pyrazol-4-yl]pyrazolo[1,5-a]pyrimidine-3-carboxamide trifluoroacetate]	114
Cn1cc(NC(=O)c2cnn3ccc(NC4CNCCC4F)nc23)c(C(F)F)n1 (single isomer, unassigned) [Example 241, N-[3-(difluoromethyl)-1-methyl-1H-pyrazol-4-yl]-5-[(3R or S, 4R or S-4-fluoropiperidin-3-yl)amino]pyrazolo[1,5-a]pyrimidine-3-carboxamide]	3

Same assay, conditions: IRAK4 IC50 (nM), IMAP fluorescence polarization, 0.5 nM GST tagged IRAK4, 100 μM ATP, 30 minutes at 25° C.

Structure (SMILES)	IC50 [nM]
Cn1cc(NC(=O)c2cnn3ccc(N[C@H]4CC(F)(F)CC[C@H]4N)nc23)c(C(F)F)n1 (single isomer, unassigned) [Example 208, 5-{[(1S,2R)- or (1R,2S)-2-amino-5,5-difluorocyclohexyl]amino}-N-[3-(difluoromethyl)-1-methyl-1H-pyrazol-4-yl]pyrazolo[1,5-a]pyrimidine-3-carboxamide]	38
